{"source": "patent US5427766A", "about": "“Radiolabeled steroids for use in radiochemical-guided surgery” (priority 1993, dated 1995)", "parameters_in_all_cases": "species or system athymic female NCR-Nu Mice", "key": {"[1]": {"test_system": "MCF-7(ER+) breast tumor xenografts", "assay": "In vivo localization (biodistribution) in athymic female nude mice bearing subcutaneous MCF-7 tumor xenografts", "method": "(§1) In vivo localization of 11β-ethyl-17α-(Z)-[^125 I](iodovinyl)estra-3,17β-diol (5) and a control compound 16α-[^125 I]iodovinyl-3,17β-estradiol (commercially available from DuPont New England Nuclear, MA) was determined in athymic female NCR-Nu Mice (purchased from Simonsen Laboratories, Gilroy, Calif.) bearing subcutaneous MCF-7(ER+) breast tumor xenografts. Prior to injection of the compounds, the mice were each implanted with fragments of MCF-7 breast tumor (approximately 2 cubic millimeters) in the subcutis of the left flank. At approximately the same time, a 1.7 mg estradiol pellet (Innovative Research of America, Toledo, Ohio) was implanted in the scapular region. The tumors were allowed to grow until they reached between 50 and 200 mg by visual inspection (approximately four to five weeks) prior to injection of the test compounds. One day prior to injection of the test compounds, the estradiol pellet was removed.\n(§2) The mice were each injected via tail vein with between 3 (1.1×10^5 Bq) and 6 μCi ([…]) ^125 I in approximately 50 μL of phosphate buffered saline. The mice were sacrificed at various time intervals. After exsanguination, the selected organ/tissue were excised, weighed and radioactivity measured in a gamma counter. The counts per minute (cpm) of 125I in each tissue was determined and expressed as cpm per gram of tissue per injected dose multiplied by 100 (percent injected dose/gram)."}, "[2]": {"test_system": "MDA-MB-231 (ER-) breast tumor xenografts", "assay": "In vivo biolocalization with gamma detecting probe, tumor/background ratio, MDA-MB-231 (ER-) tumor", "details": "mouse, in vivo", "method": "(§3) In vivo biolocalization of 11β-ethyl-17α-(Z)-[^125 I](iodovinyl)estra-3,17β-diol (5) and a control compound 16α-[^125 I](iodovinyl)-3,17β-estradiol was determined in athymic female NCR-Nu Mice bearing subcutaneous MCF-7(ER+) breast tumor xenografts and MDA-MB-231 (ER-) breast tumor xenografts. The mice were at least 5 weeks old prior to injection into the right-hand flank with […] of MCF-7 breast carcinoma cells ([…]). One day prior to this procedure, the mice were implanted subcutaneously with a 1.7 mg estradiol pellet in the scapular region. Four to six weeks post-injection of the MCF-7 cells the estradiol pellet was removed and the mice inoculated in the left hind flank with 75 μL NDA-MB-231 breast tumor cells ([…]). Seven to ten days prior to injection of the test compounds, an estradiol pellet was again implanted in the scapular region. One to two days prior to injection of the test compounds, the estradiol pellet was removed, and 5 mice arbitrarily assigned to each test group.\n(§4) The mice were each injected via tail vein with between 3 ([…]) and […] ([…]) 125 iodine in approximately […] of phosphate-buffered saline. At various time intervals after injection of the test compounds, each group of mice was anesthetized with methoxyflurane in order to measure the radioactivity over the ER+ and ER- tumors and the front leg for use as a background and the thoraxic area which served as a blood pool control using a gamma detecting probe (RIGS ^TM Model 1001 control unit, Neoprobe Corporation, Columbus, Ohio). Three 20 to 60 second counts were recorded at each area measured at each time point.\n(§5) ^c Tu/Bkg = Mean(1-5) of (mean tumor countsn - mean foreleg\n(§6) background countsn)/mean foreleg background"}, "[3]": {"test_system": "MCF-7(ER+) breast tumor xenografts", "assay": "In vivo biolocalization with gamma detecting probe, tumor/background ratio, MCF-7 (ER+) tumor", "details": "mouse, in vivo", "method": "as §3, §4, §5, §6"}, "[4]": {"test_system": "MCF-7 tumors located intraperitoneally", "assay": "In vivo localization (biodistribution) in athymic female nude mice bearing intraperitoneal MCF-7 tumors", "details": "for Percent Injected Dose/Gram, muscle: mouse, in vivo, ip", "method": "as §1, §2\nThe procedure of Example 3 was followed except each mouse was inoculated intraperitoneally with MCF-7 breast carcinoma cell line (7.5×10^6 cell/50 μL) rather than implanted subcutaneously with MCF-7 breast tumor. One day prior to this procedure, a 1.7 mg estradiol pellet was implanted subcutaneously in the scapular region. The tumor cells were allowed to form solid tumor nodules for 4 to 6 weeks prior to injection of the test compounds."}}}
{"compound": "CC[C@H]1C[C@@]2(C)[C@@H](CC[C@@]2(O)/C=C\\[125I])[C@@H]2CCc3cc(O)ccc3[C@@H]12", "note": "[Compound 5, 11β-ethyl-17α-(Z)-[^125 I](iodovinyl)estra-3,17β-diol]", "values": [{"measurement": "radioactivity in the uteri and tumors", "setting": "[1]; 48 hours post-injection, uteri and tumors, subcutaneous MCF-7", "value": "still contain a significant amount of radioactivity"}, {"measurement": "Percent Injected Dose/Gram, fat", "setting": "[1]; Fat, 48 hours, tail vein, subcutaneous MCF-7, mean, n = 5", "value": "0.00 Percent Injected Dose/Gram"}, {"measurement": "Percent Injected Dose/Gram, muscle", "setting": "[1]; 24 hours, tail vein, subcutaneous MCF-7, mean, n = 5", "value": "0.00 Percent Injected Dose/Gram"}, {"measurement": "Percent Injected Dose/Gram, muscle", "setting": "[1]; 48 hours, tail vein, subcutaneous MCF-7, mean, n = 5", "value": "0.00 Percent Injected Dose/Gram"}, {"measurement": "binding affinity in vivo with retention of the targeted-site", "setting": "[1]; subcutaneous MCF-7, conclusion in words", "value": "high binding affinity in vivo with retention of the targeted-site"}, {"measurement": "Tumor/Background Ratio (Tu/Bkg)", "setting": "[2]", "value": "2.44 ± 1.83"}, {"measurement": "Tumor/Background Ratio (Tu/Bkg)", "setting": "[2]; 120 min", "value": "4.34 ± 1.37"}, {"measurement": "Tumor/Background Ratio (Tu/Bkg)", "setting": "[2]; 360 min", "value": "4.44 ± 2.62"}, {"measurement": "Tumor/Background Ratio (Tu/Bkg)", "setting": "[2]; 1440 min", "value": "0.87 ± 0.54"}, {"measurement": "Tumor/Background Ratio (Tu/Bkg)", "setting": "[2]; 2880 min", "value": "0.03 ± 0.34"}, {"measurement": "Tumor/Background Ratio (Tu/Bkg)", "setting": "[3]", "value": "4.70 ± 1.85"}, {"measurement": "tumor to background ratios (in words)", "setting": "[3]", "value": "good tumor to background ratios"}, {"measurement": "tumor to background ratios / localization at the tumor site (in words)", "setting": "[3]", "value": "maintained a high tumor to background ratios"}, {"measurement": "Tumor/Background Ratio (Tu/Bkg)", "setting": "[3]; 120 min", "value": "4.74 ± 2.04"}, {"measurement": "Tumor/Background Ratio (Tu/Bkg)", "setting": "[3]; 360 min", "value": "7.32 ± 0.60"}, {"measurement": "Tumor/Background Ratio (Tu/Bkg)", "setting": "[3]; 1440 min", "value": "3.53 ± 1.30"}, {"measurement": "Tumor/Background Ratio (Tu/Bkg)", "setting": "[3]; 2880 min", "value": "1.79 ± 1.23"}, {"measurement": "radioactivity in the uteri and tumors", "setting": "[4]; 48 hours post-injection, uteri and tumors, intraperitoneal MCF-7", "value": "still contain a significant amount of radioactivity"}, {"measurement": "Percent Injected Dose/Gram, fat", "setting": "[4]; Fat, 48 hours, tail vein, intraperitoneal MCF-7, mean, n = 5", "value": "0.00 Percent Injected Dose/Gram"}, {"measurement": "binding affinity in vivo with retention of the targeted-site", "setting": "[4]; intraperitoneal MCF-7, conclusion in words", "value": "high binding affinity in vivo with retention of the targeted-site"}, {"measurement": "Percent Injected Dose/Gram, muscle", "setting": "[4]; 1440 min", "value": "0.00 Percent Injected Dose/Gram"}, {"measurement": "Percent Injected Dose/Gram, muscle", "setting": "[4]; 2880 min", "value": "0.00 Percent Injected Dose/Gram"}]}
